Assay [1] has as its target T1, HCV NS3 helicase (Hepatitis C virus genotype 1a, UniProt P27958).
T1 construct: The full-length HCV NS3 protein with serine protease and NTPase/helicase activities was expressed and purified as described previously; made in house
As to the kind of experiment: PET-based fluorescence helicase assay. The format is biochemical. The protocol:
The PET-based fluorescence helicase assay was performed as described previously. The dsRNA substrate was prepared by annealing the 5′ BODIPY FL-labeled fluorescence strand (5′-[…]-3′) to the quencher strand (5′-[…]-3′) at a 1:2 molar ratio. The dsRNA substrate contains the 3′-overhang that is necessary for the NS3 helicase to bind RNA prior to duplex unwinding. The capture strand (5′-[…]-3′), which is complementary to the quencher strand, prevents the unwound duplexes from reannealing. None of the capture, quencher, or fluorescence strands are self-complementary. The fluorescence strand was purchased from J-Bio 21 Corporation (Tokyo, Japan), and was labeled with BODIPY FL at the 5′-end via an aminohexylphosphate linker with a six-carbon spacer. […]
The reaction was started by the addition of HCV NS3 helicase, and was performed at 37 °C for 30 min using a LightCycler 1.5 (Roche Diagnostics, Basel, Switzerland). The fluorescence intensity was recorded every 5 s from 0 to 5 min, and then every 30 s from 5 to 30 min. Helicase activity was calculated as the initial reaction velocity relative to control (in the absence of a marine extract, but presence of DMSO vehicle). The IC50 was calculated using KaleidaGraph (Synergy Software, Reading, PA, USA) by fitting plots of % activity vs. [I] using Equation (1) unless otherwise noted: [drawing 1] […]

Assay [2] has as its target T2, NS3 RNA binding activity (Hepatitis C virus genotype 1a, UniProt P27958).
T2 construct: The full-length HCV NS3 protein with serine protease and NTPase/helicase activities was expressed and purified as described previously; made in house
Put plainly: RNA binding assay (gel mobility shift). The following applies: 32P-labeled ssRNA, 0–100 µM inhibitor. The protocol: NS3 RNA binding activity was determined by gel mobility shift assay, as described previously. The ssRNA (5′-[…]-3′) synthesized by Gene Design (Osaka, Japan) was labeled at the 5′-end with [γ-^32P] ATP (Muromachi Yakuhin, Tokyo, Japan) using T4 polynucleotide kinase (Toyobo, Osaka, Japan) at 37 °C for 60 min, and purified using the phenol-chloroform extraction method. The reaction mixture contained 30 mM Tris-HCl (pH 7.5), 100 mM NaCl, 2 mM MgCl2, 1 mM dithiothreitol, 20 U RNasin Plus (Promega), 300 nM NS3, 0.1 nM ^32P-labeled ssRNA, and increasing concentrations of inhibitor in a volume of 20 µL. The reaction was performed at room temperature for 15 min. An equal volume of a dye solution containing 0.025% bromophenol blue and 10% glycerol in 0.5× TBE was then added to each reaction mixture, and samples were loaded onto a 6% native-polyacrylamide gel. The labeled RNA bands were visualized using an Image Reader FLA-9000 and quantified using Multi Gauge software V 3.11 (Fujifilm, Tokyo, Japan). RNA binding activity was calculated as the ratio of the signal intensity derived from the NS3-ssRNA complex in the sample containing hal3 or suvanine to that in the control sample containing DMSO vehicle rather than inhibitor.

In assay [3] the target is T1, HCV NS3 helicase. As to the kind of experiment: Gel-based HCV NS3 helicase assay. The format is biochemical. The following applies: 0–100 µM inhibitor. The protocol: A gel-based helicase assay was performed on HCV NS3 helicases using an Alexa Fluor 488-labeled dsRNA strand and capture strand with the same nucleic acid sequences described in Section 3.2. The dsRNA substrate was prepared by annealing the 5′ Alexa Fluor 488-labeled strand (5′-[…]-3′) to the complementary strand (5′-[…]-3′) at a 1:2 molar ratio. The same capture strand described in Section 3.2 was used. All nucleic acid strands were purchased from Japan Bio Services (Saitama, Japan). The reaction mixture for HCV NS3 helicase contained the same components as described in Section 3.2, with increasing concentrations of hal3 or suvanine in a reaction volume of 20 µL. The reaction was started by the addition of HCV NS3 helicase, and performed at 37 °C for 60 min using a GeneAmp PCR System 2700 (Applied Biosystems, Foster City, CA, USA). […] The helicase activity was calculated as the ratio of the signal intensity derived from ssRNA in the sample containing inhibitor to that in the control sample containing DMSO vehicle instead of inhibitor.

Assay [4] has as its target T3, DENV NS3 helicase (Dengue virus type 2, UniProt P29990).
T3 construct: made in house
As to the kind of experiment: Gel-based DENV NS3 helicase assay. The format is biochemical. The settings on record: in the presence of 100 µM of each inhibitor. On the procedure:
A gel-based helicase assay was performed using DENV NS3 helicases, and the Alexa Fluor 488-labeled dsRNA strand and capture strand with the same nucleic acid sequences described in the Section 3.3. DENV NS3 helicase requires a single stranded 3′ overhang to unwind dsRNA substrates in the 3′ to 5′ direction; therefore, the substrate specificities of the DENV and HCV NS3 helicases are the same. The reaction mixture contained 50 mM Tris-HCl (pH 7.4), 1 mM DTT, 0.5% Tween 20, 0.25 µg/mL BSA, 2 mM MgCl2, 4 U RNasin (Promega), 5 mM ATP, 50 nM dsRNA substrate, 300 nM capture strand, an inhibitor, and 240 nM DENV NS3 in a total volume of 20 µL. DENV NS3 helicase was prepared as described previously. The reaction was started by the addition of DENV NS3 helicase, and was performed at 37 °C for 60 min using a GeneAmp PCR System 2700 (Applied Biosystems, Foster City, CA, USA). […] The helicase activity was calculated as the ratio of the signal intensity from ssRNA in the sample containing inhibitor to that in the control sample containing DMSO vehicle instead of inhibitor.

Assay [5] addresses T4, HCV NS3/4A protease (Hepatitis C virus genotype 1a, UniProt P27958).
T4 construct: NS3 protein with a two-fold excess of the NS4A cofactor peptide Pep4AK was prepared in 1× assay buffer; made in house
As to the kind of experiment: Fluorescence NS3 serine protease assay (FRET). Format: biochemical. On the procedure: A fluorescence NS3 serine protease assay, based on fluorescence resonance energy transfer, was conducted using reagents provided in a SensoLyte™ 520 HCV protease assay kit (AnaSpec, San Jose, CA, USA), as described previously. Briefly, NS3 protein with a two-fold excess of the NS4A cofactor peptide Pep4AK was prepared in 1× assay buffer provided with the kit. HCV NS3/4A protease was mixed with increasing concentrations of inhibitor, and incubated at 37 °C for 15 min. The reaction was started by the addition of 5-FAM/QXL 520 substrate in a 20 µL total reaction volume containing 240 nM HCV NS3/4A protease and increasing concentrations of hal3 or suvanine. Reactions were then incubated at 37 °C for 120 min on a LightCycler 1.5 (Roche Diagnostics, Basel, Switzerland), and the fluorescence intensity was recorded every min for 120 min. NS3 serine protease activity was calculated as the initial reaction velocity in the sample containing inhibitor relative to the control sample containing DMSO vehicle rather than inhibitor.

For assay [6], the target named is T5, NS3 ATPase activity (Hepatitis C virus genotype 1a, UniProt P27958).
T5 construct: The full-length HCV NS3 protein with serine protease and NTPase/helicase activities was expressed and purified as described previously; made in house
As to the kind of experiment: ATPase assay ([γ-32P] ATP hydrolysis, thin-layer chromatography). The format is biochemical. The settings on record: poly(U) RNA, 0–100 µM inhibitor. The protocol:
NS3 ATPase activity was determined directly by monitoring [γ-^32P] ATP hydrolysis by thin-layer chromatography, as described previously. The reaction mixture contained 25 mM MOPS-NaOH (pH 7.0), 1 mM dithiothreitol, 5 mM MgCl2, 5 mM CaCl2, 1 mM [γ-^32P] ATP (Muromachi Yakuhin, Tokyo, Japan), 300 nM NS3, 0.1 µg/µL poly (U) ssRNA (Sigma-Aldrich, St. Louis, MO, USA), and increasing concentrations of hal3 or suvanine in a volume of 10 µL. The reaction was conducted at 37 °C for 10 min, and stopped by the addition of 10 mM EDTA. Two microliters of each reaction mixture was then spotted onto a polyethyleneimine cellulose sheet (Merck, Darmstadt, Germany) and developed in 0.75 M LiCl/1 M formic acid solution for 20 min. The cellulose sheet was dried, and the released [γ-^32P] phosphoric acid was visualized using an Image Reader FLA-9000 and quantified using Multi Gauge software V 3.11 (Fujifilm, Tokyo, Japan). ATPase activity was calculated as the ratio of the signal intensity derived from the released Pi in the sample containing inhibitor to that in the control sample containing DMSO vehicle instead of inhibitor.

In assay [7] the test system is heat shock protein 60. The following applies: cited from earlier work.
The subject of assay [8] is serine protease. The following applies: cited from earlier work.
For assay [9], the system named is farnesoid-X-receptor. Also on record: method as in PMID 23656455. The following applies: mammalian bile acid sensor; cited from earlier work.

T1 sequence (P27958 1027-1657): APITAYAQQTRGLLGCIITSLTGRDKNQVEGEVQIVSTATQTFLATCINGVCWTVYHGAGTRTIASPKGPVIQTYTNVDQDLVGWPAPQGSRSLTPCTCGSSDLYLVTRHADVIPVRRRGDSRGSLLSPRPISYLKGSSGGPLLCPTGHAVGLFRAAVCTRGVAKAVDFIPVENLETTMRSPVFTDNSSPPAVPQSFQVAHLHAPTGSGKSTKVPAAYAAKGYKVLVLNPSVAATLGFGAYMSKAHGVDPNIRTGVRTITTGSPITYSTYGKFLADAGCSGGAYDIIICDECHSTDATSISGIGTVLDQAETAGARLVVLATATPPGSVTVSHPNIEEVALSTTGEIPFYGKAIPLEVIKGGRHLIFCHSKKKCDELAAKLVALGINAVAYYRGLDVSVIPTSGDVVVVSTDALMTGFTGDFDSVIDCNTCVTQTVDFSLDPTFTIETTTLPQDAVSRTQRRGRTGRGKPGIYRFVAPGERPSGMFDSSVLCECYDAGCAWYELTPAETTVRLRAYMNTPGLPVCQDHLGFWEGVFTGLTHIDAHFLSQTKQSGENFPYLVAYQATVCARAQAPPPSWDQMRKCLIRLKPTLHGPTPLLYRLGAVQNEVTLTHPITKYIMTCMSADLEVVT
T3 sequence (P29990 1476-2093): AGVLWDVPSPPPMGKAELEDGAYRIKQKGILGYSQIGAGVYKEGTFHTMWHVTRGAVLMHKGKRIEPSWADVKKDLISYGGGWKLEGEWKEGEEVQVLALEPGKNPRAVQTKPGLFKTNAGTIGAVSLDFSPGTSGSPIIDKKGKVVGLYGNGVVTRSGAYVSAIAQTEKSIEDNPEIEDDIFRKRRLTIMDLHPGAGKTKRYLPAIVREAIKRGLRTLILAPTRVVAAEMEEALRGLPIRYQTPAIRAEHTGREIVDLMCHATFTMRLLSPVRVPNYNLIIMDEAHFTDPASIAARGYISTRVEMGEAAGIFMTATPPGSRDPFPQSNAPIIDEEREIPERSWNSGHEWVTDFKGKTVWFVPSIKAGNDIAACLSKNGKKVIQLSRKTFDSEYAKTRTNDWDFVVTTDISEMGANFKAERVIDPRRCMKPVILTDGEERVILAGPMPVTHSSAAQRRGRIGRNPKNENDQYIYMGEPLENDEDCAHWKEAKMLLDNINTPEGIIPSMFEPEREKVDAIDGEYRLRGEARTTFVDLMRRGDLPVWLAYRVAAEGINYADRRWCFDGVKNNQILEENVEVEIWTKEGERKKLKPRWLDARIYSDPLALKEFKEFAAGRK
T5 sequence (P27958 1027-1657): as the sequence (P27958 1027-1657) above
T2 sequence (P27958 1027-1657): as above
T4 sequence (P27958 1027-1657): as above

`C[C@@H]1CCC2=C(CCCC2(C)C)[C@@]1(C)CC[C@H](CCCc1ccoc1)COS(=O)(=O)[O-].[Na+]` [hal3, halisulfate 3]: the IC50 was 4 µM in assay [1], 8 µM in [2], 14 µM in [5] and 8 µM in [6]. For the same compound, the “helicase-catalyzed RNA unwinding” value in [3] was “inhibited helicase-catalyzed RNA unwinding in a dose-dependent manner”. In addition, the “DENV NS3 helicase activity” value in assay [4] is on record as “did not abolish”.
`CC1(C)CCC[C@]2(C)[C@H]3CC/C(=C\OS(=O)(=O)[O-])[C@H](CCc4ccoc4)[C@@]3(C)CC[C@@H]12.[Na+]` [suvanine]: the IC50 is 3 µM in assay [1], 3 µM in assay [2], 34 µM in assay [5] and 7 µM in assay [6]. Further, the “helicase-catalyzed RNA unwinding” value in [3] was “inhibited helicase-catalyzed RNA unwinding in a dose-dependent manner”. The “DENV NS3 helicase activity” value in assay [4] is “did not abolish”. Moreover, the “interference with heat shock protein 60” value in assay [7] is “interferes with”. In addition, in assay [8], the serine protease inhibition entry was “serine protease inhibitor”. Besides, the farnesoid-X-receptor antagonism result in assay [9] is recorded as “antagonist”.

Usually IC50 stands for the point on the concentration scale where inhibition reaches its midpoint.

The values are drawn from publication PMC3917281, “Identification and Biochemical Characterization of Halisulfate 3 and Suvanine as Novel Inhibitors of Hepatitis C Virus NS3 Helicase from a Marine Sponge” (Marine Drugs, 2014).
